Converted amounts (≈) assume the structure as drawn. The source made the active and inactive calls. No cut-off for these calls is given here.
What was measured:
Staphylococcus aureus [1] = assay: Antimicrobial activity against Staphylococcus aureus ATCC 29213 by broth microdilution susceptibility assay; format: functional
[2] = tested on: Stenotrophomonas maltophilia; assay: Antimicrobial activity against Stenotrophomonas maltophilia ATCC 13637 after 24 hrs by broth microdilution susceptibility assay; format: functional; conditions: ATCC 13637, 24 h
Neisseria gonorrhoeae [3] = assay: Antimicrobial activity against Neisseria gonorrhoeae ATCC 49226 after 24 hrs by broth microdilution susceptibility assay; format: functional; conditions: ATCC 49226, 24 h
Enterococcus faecalis [4] = assay: Antimicrobial activity against Enterococcus faecalis ATCC 29212 after 24 hrs by broth microdilution susceptibility assay; format: functional; conditions: ATCC 29212, 24 h
OVCAR-3 = assay: Cytotoxicity against human OVCAR-3 cells after 48 hrs by sulforhodamine B assay; format: functional
Candida albicans [5] = assay: Antifungal activity against Candida albicans ATCC 90028 after 24 hrs by broth microdilution susceptibility assay; format: functional; conditions: ATCC 90028, 24 h
Escherichia coli [6] = assay: Antimicrobial activity against Escherichia coli ATCC 25922 assessed clear zone in inhibition per disk by CLSI disk diffusion susceptibility assay; format: functional
Candida albicans [7] = assay: Antifungal activity against Candida albicans ATCC 90028 after 48 hrs by broth microdilution susceptibility assay; format: functional; conditions: ATCC 90028, 48 h
Neisseria gonorrhoeae [8] = assay: Antimicrobial activity against Neisseria gonorrhoeae ATCC 49226 assessed clear zone of inhibition measured per disk by CLSI disk diffusion susceptibility assay; format: functional
Cryptococcus neoformans [9] = assay: Antimicrobial activity against Cryptococcus neoformans ATCC 90112 assessed clear zone in inhibition per disk by CLSI disk diffusion susceptibility assay; format: functional
NCI-H460 = assay: Cytotoxicity against human NCI-H460 cells after 48 hrs by sulforhodamine B assay; format: functional; conditions: NCI-H460, 48 h
Micrococcus luteus [10] = assay: Antimicrobial activity against Micrococcus luteus Presque Isle 456 after 24 hrs by broth microdilution susceptibility assay; format: functional; conditions: Presque Isle 456, 24 h
Neisseria gonorrhoeae [11] = assay: Antimicrobial activity against Neisseria gonorrhoeae ATCC 49226 by broth microdilution susceptibility assay; format: functional
Enterococcus faecalis [12] = assay: Antimicrobial activity against Enterococcus faecalis ATCC 29212 assessed clear zone in inhibition per disk by CLSI disk diffusion susceptibility assay; format: functional
P388 = assay: Cytotoxicity against mouse P388 cells after 48 hrs by sulforhodamine B assay; format: functional; conditions: P388, 48 h, read-out: ED50 (the source's name)
SF-268 = assay: Cytotoxicity against human SF268 cells after 48 hrs by sulforhodamine B assay; format: functional; conditions: SF-268, 48 h
[13] = tested on: Stenotrophomonas maltophilia; assay: Antimicrobial activity against Stenotrophomonas maltophilia ATCC 13637 by broth microdilution susceptibility assay; format: functional
A498 = assay: Cytotoxicity against human A498 cells after 48 hrs by sulforhodamine B assay; format: functional
Cryptococcus neoformans [14] = assay: Antifungal activity against Cryptococcus neoformans ATCC 90112 after 48 hrs by broth microdilution susceptibility assay; format: functional; conditions: ATCC 90112, 48 h
Cryptococcus neoformans [15] = assay: Antifungal activity against Cryptococcus neoformans ATCC 90112 after 72 hrs by broth microdilution susceptibility assay; format: functional; conditions: ATCC 90112, 72 h
Streptococcus pneumoniae [16] = assay: Antimicrobial activity against Streptococcus pneumoniae ATCC 6303 by broth microdilution susceptibility assay; format: functional
DU-145 = assay: Cytotoxicity against human DU145 cells after 48 hrs by sulforhodamine B assay; format: functional; conditions: DU-145, 48 h
KM-20L2 = assay: Cytotoxicity against human KM20L2 cells after 48 hrs by sulforhodamine B assay; format: functional; conditions: KM-20L2, 48 h
Candida albicans [17] = assay: Antimicrobial activity against Candida albicans ATCC 90028 assessed clear zone in inhibition per disk by CLSI disk diffusion susceptibility assay; format: functional
Staphylococcus aureus [18] = assay: Antimicrobial activity against Staphylococcus aureus ATCC 29213 assessed clear zone in inhibition per disk by CLSI disk diffusion susceptibility assay; format: functional
Escherichia coli [19] = assay: Antimicrobial activity against Escherichia coli ATCC 25922 by broth microdilution susceptibility assay; format: functional
SK-MEL-5 = assay: Cytotoxicity against human SK-MEL-5 cells after 48 hrs by sulforhodamine B assay; format: functional
Streptococcus pneumoniae [20] = assay: Antimicrobial activity against Streptococcus pneumoniae ATCC 6303 assessed clear zone in inhibition per disk by CLSI disk diffusion susceptibility assay; format: functional
BXPC-3 = assay: Cytotoxicity against human BxPC3 cells after 48 hrs by sulforhodamine B assay; format: functional; conditions: BXPC-3, 48 h
Streptococcus pneumoniae [21] = assay: Antimicrobial activity against Streptococcus pneumoniae ATCC 6303 after 24 hrs by broth microdilution susceptibility assay; format: functional; conditions: ATCC 6303, 24 h
Enterobacter cloacae [22] = assay: Antimicrobial activity against Enterobacter cloacae ATCC 13047 assessed clear zone in inhibition per disk by CLSI disk diffusion susceptibility assay; format: functional
[23] = Inhibition of tubulin polymerization
Staphylococcus aureus [24] = assay: Antimicrobial activity against Staphylococcus aureus ATCC 29213 after 24 hrs by broth microdilution susceptibility assay; format: functional; conditions: ATCC 29213, 24 h
Micrococcus luteus [25] = assay: Antimicrobial activity against Micrococcus luteus Presque Isle 456 assessed clear zone in inhibition per disk by CLSI disk diffusion susceptibility assay; format: functional
Enterococcus faecalis [26] = assay: Antimicrobial activity against Enterococcus faecalis ATCC 29212 by broth microdilution susceptibility assay; format: functional
SF-295 = assay: Cytotoxicity against human SF295 cells after 48 hrs by sulforhodamine B assay; format: functional
MCF7 = assay: Cytotoxicity against human MCF7 cells after 48 hrs by sulforhodamine B assay; format: functional; conditions: MCF7, 48 h
Enterobacter cloacae [27] = assay: Antimicrobial activity against Enterobacter cloacae ATCC 13047 by broth microdilution susceptibility assay; format: functional
[28] = tested on: Stenotrophomonas maltophilia; assay: Antimicrobial activity against Stenotrophomonas maltophilia ATCC 13637 assessed clear zone in inhibition per disk by CLSI disk diffusion susceptibility assay; format: functional
Micrococcus luteus [29] = assay: Antimicrobial activity against Micrococcus luteus Presque Isle 456 by broth microdilution susceptibility assay; format: functional

| SMILES | MIC (Staphylococcus aureus [1]) [µg/mL] | MBC (Neisseria gonorrhoeae [3]) [µg/mL] | GI50 (OVCAR-3) | MIC (Escherichia coli [6]) [µg] | MIC (Candida albicans [7]) [µg/mL] | MIC (Neisseria gonorrhoeae [8]) [µg] | MIC (Cryptococcus neoformans [9]) [µg] | GI50 (NCI-H460) [µg/mL] | MIC (Neisseria gonorrhoeae [11]) [µg/mL] | MIC (Enterococcus faecalis [12]) [µg] | EC50 (P388) [µg/mL] | GI50 (SF-268) [µg/mL] | MIC [13] [µg/mL] | GI50 (A498) | MFC (Cryptococcus neoformans [14]) [µg/mL] | MIC (Cryptococcus neoformans [15]) [µg/mL] | MIC (Streptococcus pneumoniae [16]) [µg/mL] | GI50 (DU-145) [µg/mL] | GI50 (KM-20L2) [µg/mL] | MIC (Candida albicans [17]) [µg] | further results |
| --- | --- | --- | --- | --- | --- | --- | --- | --- | --- | --- | --- | --- | --- | --- | --- | --- | --- | --- | --- | --- | --- |
| O=[N+]([O-])/C=C/c1c[nH]c2ccccc12 | 64 (≈ 340 µM) | 8 (≈ 42.5 µM) | inactive | 25 | 32 (≈ 170 µM) | 3.12 | 6.25 | 1.6 (≈ 8.5 µM) | 8 (≈ 42.5 µM) | >100 | 3.7 (≈ 19.7 µM) | 1.9 (≈ 10.1 µM) | 64 (≈ 340 µM) | inactive | 32 (≈ 170 µM) | 16 (≈ 85 µM) | 64 (≈ 340 µM) | 1.3 (≈ 6.91 µM) | 1.4 (≈ 7.44 µM) | 12.5 | MBC [2]: > 64 µg/mL; MBC (Enterococcus faecalis [4]): > 64 µg/mL; MFC (Candida albicans [5]): 64 µg/mL (≈ 340 µM); MBC (Micrococcus luteus [10]): > 64 µg/mL; MIC (Staphylococcus aureus [18]): >100 µg; MIC (Escherichia coli [19]): > 64 µg/mL; GI50 (SK-MEL-5): inactive; MIC (Streptococcus pneumoniae [20]): 12.5 µg; GI50 (BXPC-3): 1.4 µg/mL (≈ 7.44 µM); MBC (Streptococcus pneumoniae [21]): > 64 µg/mL; MIC (Enterobacter cloacae [22]): >100 µg; IC50 [23]: 15 µM; MBC (Staphylococcus aureus [24]): > 64 µg/mL; MIC (Micrococcus luteus [25]): 50 µg; MIC (Enterococcus faecalis [26]): 64 µg/mL (≈ 340 µM); GI50 (SF-295): inactive; GI50 (MCF7): 0.4 µg/mL (≈ 2.13 µM); MIC (Enterobacter cloacae [27]): > 64 µg/mL; MIC [28]: 25 µg; MIC (Micrococcus luteus [29]): 64 µg/mL (≈ 340 µM) |
| COc1cc(/C=C/[N+](=O)[O-])cc(OC)c1 | > 64 | 2 (≈ 9.56 µM) | inactive | >100 | 16 (≈ 76.5 µM) | 0.78 | 0.78 | 2 (≈ 9.56 µM) | 2 (≈ 9.56 µM) | 12.5 | 0.24 (≈ 1.15 µM) | 2.3 (≈ 11 µM) | > 64 | inactive | 16 (≈ 76.5 µM) | 16 (≈ 76.5 µM) | 64 (≈ 306 µM) | 1.5 (≈ 7.17 µM) | 1.5 (≈ 7.17 µM) | 3.12 | MFC (Candida albicans [5]): 16 µg/mL (≈ 76.5 µM); MIC (Staphylococcus aureus [18]): 6.25 µg; MIC (Escherichia coli [19]): > 64 µg/mL; GI50 (SK-MEL-5): inactive; MIC (Streptococcus pneumoniae [20]): >100 µg; GI50 (BXPC-3): 1.6 µg/mL (≈ 7.65 µM); MBC (Streptococcus pneumoniae [21]): > 64 µg/mL; MIC (Enterobacter cloacae [22]): >100 µg; IC50 [23]: 3.9 µM; MIC (Micrococcus luteus [25]): 25 µg; MIC (Enterococcus faecalis [26]): > 64 µg/mL; GI50 (SF-295): inactive; GI50 (MCF7): 1.8 µg/mL (≈ 8.6 µM); MIC (Enterobacter cloacae [27]): > 64 µg/mL; MIC [28]: >100 µg; MIC (Micrococcus luteus [29]): > 64 µg/mL |
| COc1cc(/C=C/[N+](=O)[O-])ccc1OCc1ccccc1 | 4 (≈ 14 µM) | 2 (≈ 7.01 µM) | inactive | >100 | > 64 | <0.78 | <0.78 | 1.3 (≈ 4.56 µM) | 1 (≈ 3.51 µM) | >100 | 16.6 (≈ 58.2 µM) | 0.94 (≈ 3.29 µM) | > 64 | inactive | 64 (≈ 224 µM) | 32 (≈ 112 µM) | 16 (≈ 56.1 µM) | 1.3 (≈ 4.56 µM) | 1.5 (≈ 5.26 µM) | >100 | MIC (Staphylococcus aureus [18]): 6.25 µg; MIC (Escherichia coli [19]): > 64 µg/mL; GI50 (SK-MEL-5): inactive; MIC (Streptococcus pneumoniae [20]): 12.5 µg; GI50 (BXPC-3): 1.7 µg/mL (≈ 5.96 µM); MBC (Streptococcus pneumoniae [21]): 32 µg/mL (≈ 112 µM); MIC (Enterobacter cloacae [22]): >100 µg; IC50 [23]: 2.5 µM; MBC (Staphylococcus aureus [24]): > 16 µg/mL; MIC (Micrococcus luteus [25]): >100 µg; MIC (Enterococcus faecalis [26]): > 64 µg/mL; GI50 (SF-295): inactive; GI50 (MCF7): 0.96 µg/mL (≈ 3.36 µM); MIC (Enterobacter cloacae [27]): > 64 µg/mL; MIC [28]: >100 µg; MIC (Micrococcus luteus [29]): 4 µg/mL (≈ 14 µM) |
